In ChEMBL document CHEMBL5390237, “Discovery of Selective Histone Deacetylase 1 and 2 Inhibitors: Screening of a Focused Library Constructed by Click Chemistry, Kinetic Binding Analysis, and Biological Evaluation” (J Med Chem, 2023):

Each compound was assayed against T1, Histone deacetylase 2 (Homo sapiens, UniProt Q92769). Settings: Sf9, time 60.0 min.
T1 sequence (Q92769 whole entry): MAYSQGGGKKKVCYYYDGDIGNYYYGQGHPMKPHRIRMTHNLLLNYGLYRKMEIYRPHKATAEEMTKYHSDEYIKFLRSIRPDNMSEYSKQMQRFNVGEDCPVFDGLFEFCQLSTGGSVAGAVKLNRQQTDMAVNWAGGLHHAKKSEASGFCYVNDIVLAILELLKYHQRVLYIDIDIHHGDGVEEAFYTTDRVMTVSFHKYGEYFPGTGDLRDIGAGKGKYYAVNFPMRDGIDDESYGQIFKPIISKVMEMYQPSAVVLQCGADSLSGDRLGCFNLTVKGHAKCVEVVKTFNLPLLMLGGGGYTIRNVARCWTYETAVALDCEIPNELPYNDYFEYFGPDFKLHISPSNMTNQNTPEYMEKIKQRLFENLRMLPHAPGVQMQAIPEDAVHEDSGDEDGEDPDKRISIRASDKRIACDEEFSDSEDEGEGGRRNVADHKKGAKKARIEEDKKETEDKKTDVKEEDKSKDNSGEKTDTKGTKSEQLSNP

| ka | SMILES |
| --- | --- |
| 13300 M⁻¹ s⁻¹ | CC(=O)Nc1ccc(C(=O)Nc2cc(-c3cccs3)ccc2N)cc1 |
| 7670 M⁻¹ s⁻¹ | Nc1ccccc1NC(=O)c1ccc(CNC(=O)OCc2cccnc2)cc1 |

What follows are compounds tested against T1, Histone deacetylase 2 (assay: Inhibition of full-length recombinant human C-terminal GST tagged HDAC2 expressed in Sf9 insect cells using aminoluciferin peptide substrate at 100 nM preincubated for 3 hrs followed by substrate addition and measured after 30 mins by HDAC-Glo I/II chemiluminescence assay). Settings: time 3.5 hrs.

| inhibition | SMILES |
| --- | --- |
| 4% | Cc1ccccc1CCn1cc(CCC(=O)Nc2cc(-c3ccccc3)ccc2N)nn1 |
| 0% | Nc1ccc(-c2ccsc2)cc1NC(=O)c1cn(Cc2ccc(Oc3ccccc3)cc2)nn1 |
| 12% | Nc1ccc(-c2ccc(F)cc2)cc1NC(=O)CCc1cn(CCCc2ccccc2)nn1 |
| 15% | Cc1csc(CCn2cc(C(=O)Nc3cc(-c4cccs4)ccc3N)nn2)n1 |
| 24% | Nc1ccc(-n2cc(CCC(=O)Nc3cc(-c4ccsc4)ccc3N)nn2)cc1 |
| 0% | Nc1ccc(-c2ccccc2)cc1NC(=O)c1cn(CS(=O)(=O)c2ccccc2)nn1 |
| 0% | Nc1ccc(-c2ccsc2)cc1NC(=O)c1cn(Cc2cccc(C(=O)O)c2)nn1 |
| 0% | Nc1ccc(-c2ccsc2)cc1NC(=O)c1cn(-c2ccc([N+](=O)[O-])cc2)nn1 |
| 0% | Cc1ccccc1CCn1cc(C(=O)Nc2cc(-c3ccccc3)ccc2N)nn1 |
| 8% | Cc1cccc(C)c1NC(=O)Cn1cc(-c2cccc(C(=O)Nc3cc(-c4cccs4)ccc3N)c2)nn1 |
| 17% | Nc1ccc(-c2cccs2)cc1NC(=O)c1cn(CCc2ccc([N+](=O)[O-])cc2)nn1 |
| 0% | Nc1ccc(-c2ccccc2)cc1NC(=O)c1cn(CCc2ccccc2[N+](=O)[O-])nn1 |
| 3% | Nc1ccc(-c2cccs2)cc1NC(=O)c1ccc(-c2cn(Cc3ccc4ccccc4c3)nn2)s1 |
| 20% | Cc1cccc(CCn2cc(-c3ccc(C(=O)Nc4cc(-c5cccs5)ccc4N)s3)nn2)c1 |
| 0% | Nc1ccc(-c2ccc(F)cc2)cc1NC(=O)CCc1cn(CCc2cccc3ccccc23)nn1 |
| 0% | Nc1ccc(-c2cccnc2)cc1NC(=O)CCc1cn(-c2cccc3ccccc23)nn1 |
| 0% | Cc1ccc(-n2cc(CCC(=O)Nc3cc(-c4cccs4)ccc3N)nn2)cc1C |
| 16% | Nc1ccc(-c2cccs2)cc1NC(=O)c1cn(CCc2ccc(C(=O)O)cc2)nn1 |
| 2% | Nc1ccc(-c2cccs2)cc1NC(=O)c1ccc(-c2cn(CCCc3ccccc3)nn2)cc1 |
| 0% | Nc1ccc(-c2ccsc2)cc1NC(=O)CCc1cn(CCC2CCCC2)nn1 |
| 4% | Nc1ccc(-c2cccs2)cc1NC(=O)c1cccc(-c2cn(CCc3cccc([N+](=O)[O-])c3)nn2)c1 |

| inhibition | SMILES |
| --- | --- |
| 2% | Nc1ccc(-c2ccsc2)cc1NC(=O)CCc1cn(CCc2cccc(C(F)(F)F)c2)nn1 |
| 0% | Nc1ccc(-c2ccccc2)cc1NC(=O)c1cn(CCCCC(=O)O)nn1 |
| 27% | Nc1ccc(-c2ccccc2)cc1NC(=O)c1cn(Cc2ccc(C(=O)O)cc2)nn1 |
| 20% | Nc1ccc(-c2ccsc2)cc1NC(=O)CCc1cn(CCc2ccc3ccccc3n2)nn1 |
| 9% | Nc1ccc(-c2cccs2)cc1NC(=O)c1ccc(-c2cn(CCCCCC(=O)O)nn2)cc1 |
| 2% | Nc1ccc(-c2cccs2)cc1NC(=O)c1cccc(-c2cn(CCc3ccccc3C(F)(F)F)nn2)c1 |
| 5% | Nc1ccc(-c2ccsc2)cc1NC(=O)c1cn(CCCc2ccccc2)nn1 |
| 0% | CCc1ccc(Cn2cc(C(=O)Nc3cc(-c4ccc(F)cc4)ccc3N)nn2)cc1 |
| 0% | Nc1ccc(-c2cccs2)cc1NC(=O)c1cn(CCc2ccccn2)nn1 |
| 13% | Nc1ccc(-c2ccccc2)cc1NC(=O)CCc1cn(CCc2ccccc2[N+](=O)[O-])nn1 |
| 10% | CCc1ccc(Cn2cc(CCC(=O)Nc3cc(-c4cccs4)ccc3N)nn2)cc1 |
| 22% | Nc1ccc(-c2ccsc2)cc1NC(=O)CCc1cn(CCc2c[nH]c3ccccc23)nn1 |
| 0% | Nc1ccc(-c2ccsc2)cc1NC(=O)c1cn(-c2ccccc2-c2ccccc2)nn1 |
| 19% | Nc1ccc(-c2cccs2)cc1NC(=O)c1cn(CCc2ccccc2[N+](=O)[O-])nn1 |
| 27% | Cc1cccc(CCn2cc(CCC(=O)Nc3cc(-c4ccccc4)ccc3N)nn2)c1 |
| 9% | Nc1ccc(-c2cccs2)cc1NC(=O)CCc1cn(Cc2cccc3ccccc23)nn1 |
| 0% | Nc1ccc(-c2cccs2)cc1NC(=O)c1cccc(-c2cn(-c3ccccc3-c3ccccc3)nn2)c1 |
| 5% | Nc1ccc(-c2cccs2)cc1NC(=O)CCc1cn(CCc2cccc(F)c2)nn1 |
| 12% | Nc1ccc(-c2cccs2)cc1NC(=O)c1cn(Cc2ccc3ccccc3n2)nn1 |
| 23% | Nc1ccc(-c2cccs2)cc1NC(=O)c1ccc(-c2cn(CCc3cccc([N+](=O)[O-])c3)nn2)s1 |
| 24% | Nc1ccc(-c2cccs2)cc1NC(=O)CCc1cn(CCc2ccc(Cl)cc2)nn1 |

| inhibition | SMILES |
| --- | --- |
| 10% | Nc1ccc(-n2cc(C(=O)Nc3cc(-c4cccs4)ccc3N)nn2)cc1 |
| 0% | Nc1ccc(-c2ccccc2)cc1NC(=O)CCc1cn(CCc2ccc(Cl)cc2)nn1 |
| 14% | Nc1ccc(-c2cccs2)cc1NC(=O)c1ccc(-c2cn(Cc3cccc4ccccc34)nn2)cc1 |
| 18% | Nc1ccc(-c2cccs2)cc1NC(=O)c1ccc(-c2cn(CCc3ccc(Cl)cc3)nn2)cc1 |
| 7% | Nc1ccc(-c2cccs2)cc1NC(=O)c1cccc(-c2cn(CC(=O)c3ccccc3)nn2)c1 |
| 13% | Nc1ccc(-c2cccnc2)cc1NC(=O)CCc1cn(CCc2cccc(F)c2)nn1 |
| 14% | Nc1ccc(-c2ccsc2)cc1NC(=O)CCc1cn(CC(=O)Nc2ccc(F)cc2)nn1 |
| 0% | Nc1ccc(-c2ccccc2)cc1NC(=O)CCc1cn(-c2ccc(I)cc2)nn1 |
| 18% | Nc1ccc(-c2ccc(F)cc2)cc1NC(=O)CCc1cn(CCN2CCc3ccccc3C2)nn1 |
| 0% | Nc1ccc(-c2ccsc2)cc1NC(=O)c1cn(-c2ccc(Br)cc2)nn1 |
| 3% | Nc1ccc(-c2cccs2)cc1NC(=O)c1cn(CCC2CCCCC2)nn1 |
| 0% | Nc1ccc(-c2ccccc2)cc1NC(=O)CCc1cn(-c2ccc(Br)cc2)nn1 |
| 17% | COc1ccc(Cn2cc(C(=O)Nc3cc(-c4cccs4)ccc3N)nn2)cc1 |
| 30% | Nc1ccc(-c2cccs2)cc1NC(=O)CCc1cn(Cc2ccc3ccccc3c2)nn1 |
| 11% | Nc1ccc(-c2ccccc2)cc1NC(=O)CCc1cn(CC(=O)Nc2ccc(F)cc2)nn1 |
| 0% | Nc1ccc(-c2ccsc2)cc1NC(=O)c1cn(CCCCC(=O)O)nn1 |
| 14% | COc1ccc(-n2cc(-c3cccc(C(=O)Nc4cc(-c5cccs5)ccc4N)c3)nn2)cc1 |
| 33% | Nc1ccc(-c2cccs2)cc1NC(=O)c1cccc(-c2cn(CCc3ccccn3)nn2)c1 |
| 11% | Cc1cccc(C)c1NC(=O)Cn1cc(CCC(=O)Nc2cc(-c3cccnc3)ccc2N)nn1 |
| 0% | Nc1ccc(-c2ccccc2)cc1NC(=O)CCc1cn(CCc2cccc3ccccc23)nn1 |

Molecular target: T1, Histone deacetylase 2
Settings: Sf9, time 60.0 min
Remark: another data set of the same source

| Kdiss | SMILES |
| --- | --- |
| 6.67e-05 s⁻¹ | CC(=O)Nc1ccc(C(=O)Nc2cc(-c3cccs3)ccc2N)cc1 |
| 5e-05 s⁻¹ | Nc1ccccc1NC(=O)c1ccc(CNC(=O)OCc2cccnc2)cc1 |
